# Source: ChEMBL document CHEMBL1129918, “Peptide argininol inverse substrates of anisic acid: Novel inhibitors of the trypsin-like serine proteinases” (Bioorg Med Chem Lett, 1997)
# The source made the active and inactive calls. No cut-off for these calls is given here.
# Legend:
# [1] = target: Serine protease 1 (Homo sapiens) (UniProt P07477); test: The inhibitor specificity constant ki/Ki was evaluated for the compound against trypsin
# Prothrombin = Prothrombin (Homo sapiens, UniProt P00734); test: Evaluated for inhibition against thrombin
# [2] = target: Coagulation factor X (Homo sapiens) (UniProt P00742); test: Inhibitor specificity constant ki/Ki was evaluated for the compound against Factor Xa
# Tryptase (Homo sapiens) = Tryptase (Homo sapiens) (UniProt Q9BZJ3+Q15661+Q9NRR2); test: Inhibitor specificity constant ki/Ki was evaluated for the compound against tryptase; NI means No inhibition; type: protein assay
# Serine protease 1 (Homo sapiens), sequence (P07477 whole entry): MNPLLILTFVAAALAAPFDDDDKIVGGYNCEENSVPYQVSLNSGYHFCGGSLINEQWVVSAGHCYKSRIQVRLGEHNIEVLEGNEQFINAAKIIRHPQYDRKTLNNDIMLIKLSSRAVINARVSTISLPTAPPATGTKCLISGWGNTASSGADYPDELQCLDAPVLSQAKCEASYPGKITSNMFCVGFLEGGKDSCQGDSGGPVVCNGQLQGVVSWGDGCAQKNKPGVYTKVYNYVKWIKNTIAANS
# Coagulation factor X (Homo sapiens), sequence (P00742 41-179 limits assumed): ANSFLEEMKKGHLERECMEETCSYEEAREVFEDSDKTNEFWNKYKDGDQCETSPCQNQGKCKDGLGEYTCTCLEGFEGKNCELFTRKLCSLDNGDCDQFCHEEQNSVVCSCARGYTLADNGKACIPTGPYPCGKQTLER
# Coagulation factor X (Homo sapiens), sequence (P00742 235-488 limits assumed): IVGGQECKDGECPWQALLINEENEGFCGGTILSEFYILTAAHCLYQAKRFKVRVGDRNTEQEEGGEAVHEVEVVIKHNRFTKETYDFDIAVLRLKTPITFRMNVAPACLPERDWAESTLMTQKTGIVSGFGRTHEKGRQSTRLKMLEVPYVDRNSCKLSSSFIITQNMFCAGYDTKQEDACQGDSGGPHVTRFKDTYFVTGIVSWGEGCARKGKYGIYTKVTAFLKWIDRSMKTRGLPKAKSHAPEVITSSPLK
smiles,measurement,setting,value
COc1ccc(C(=O)OC[C@H](CCCN=C(N)N)NC(=O)[C@@H]2CCCN2C(=O)[C@@H](Cc2ccccc2)NC(=O)OC(C)(C)C)cc1,ki/Ki,[1],0.0417 M⁻¹ s⁻¹
same,Ki,Prothrombin,14 µM
CC[C@H](C)[C@H](NC(=O)OC(C)(C)C)C(=O)N[C@@H](CCC(=O)O)C(=O)NCC(=O)N[C@@H](CCCN=C(N)N)COC(=O)c1ccc(OC)cc1,ki/Ki,[2],0.075 M⁻¹ s⁻¹
COc1ccc(C(=O)OC[C@H](CCCN=C(N)N)NC(=O)[C@H](CCC(N)=O)NC(=O)[C@H](CCCN=C(N)N)NC(C)=O)cc1,ki/Ki,Tryptase (Homo sapiens),inactive
